Measurements taken from patent US20010056184A1, “Pipecolinic acid derivatives, method of manufacturing the same and therapeutic agents containing these compounds” (priority 2000, published 2001).

Legend:
Format in all cases: biochemical
[1] = molecular target: T1, human fibroblasts derived MMP-1 (type I collagenase) (Homo sapiens, UniProt P03956); test: MMP-1 (type I collagenase) inhibitory activities, fluorogenic substrate enzyme assay; conditions: for IC50: 37° C., 4 h, substrate 10 μM; for inhibition at 10 µM: at 10^−5M, NE means no effect, read-out: MMP-1 inhibition percent
T1 construct: human fibroblasts derived MMP-1 (Yagai Co. Ltd.) as enzyme; purchased Yagai Co. Ltd; host or cells: human fibroblasts
T1 sequence (P03956 100-469): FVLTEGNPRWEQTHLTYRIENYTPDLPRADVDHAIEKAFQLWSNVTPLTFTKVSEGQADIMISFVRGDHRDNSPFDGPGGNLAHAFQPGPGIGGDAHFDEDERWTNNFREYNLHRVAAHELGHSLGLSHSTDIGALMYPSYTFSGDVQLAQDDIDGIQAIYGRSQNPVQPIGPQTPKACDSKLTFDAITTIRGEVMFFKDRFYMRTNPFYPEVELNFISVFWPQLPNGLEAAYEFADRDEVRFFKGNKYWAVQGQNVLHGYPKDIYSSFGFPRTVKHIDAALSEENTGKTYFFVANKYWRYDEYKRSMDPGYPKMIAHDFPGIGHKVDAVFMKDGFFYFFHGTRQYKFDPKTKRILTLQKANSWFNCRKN
Method: Examination 1: MMP-1 (type I collagenase) inhibitory activities.
Inhibitory activities of MMP-1 (type I collagenase) activities were estimated by enzyme assay using human fibroblasts derived MMP-1 (Yagai Co. Ltd.) as enzyme, and MOCAc-Pro-Leu-Gly-Leu-A2pr(Dnp)-Ala-Arg-NH2 (Peptide Research Center, 3163-v) as substrate. Thus, MMP-1 (0.01 U/ml), test compound (10^−10˜10^−5 M), and the substrate (10 μM) were incubated in 50 mM Tris-HCl buffer (pH 7.4) containing 0.2M NaCl, 10 mM CaCl2, 0.02% NaN3, and 0.05% Brij 35 at 37° C. for 4 h. The reaction was stopped by adding of 4 volumes of sodium acetate buffer (pH 4.0), and the degradation of substrate was calculated by measurement with a fluorescence intensity (λ ex 328 nm, λ em 393 nm). Inhibition of degradation of substrate in the presence of compound was determined by comparison with the degradation percent of substrate in the absence of compound, and concentration of 50% inhibition (IC50 value) was calculated.

MMP-2 (gelatinase A) = molecular target: T2, MMP-2 (gelatinase A) (Homo sapiens, UniProt P08253); test: MMP-2 (gelatinase A) inhibitory activities, fluorogenic substrate enzyme assay; conditions: 42° C., 2 h, substrate 10 μM
T2 construct: made in house; host or cells: COS-1 cells (secreted into culture medium)
T2 sequence (P08253 110-660): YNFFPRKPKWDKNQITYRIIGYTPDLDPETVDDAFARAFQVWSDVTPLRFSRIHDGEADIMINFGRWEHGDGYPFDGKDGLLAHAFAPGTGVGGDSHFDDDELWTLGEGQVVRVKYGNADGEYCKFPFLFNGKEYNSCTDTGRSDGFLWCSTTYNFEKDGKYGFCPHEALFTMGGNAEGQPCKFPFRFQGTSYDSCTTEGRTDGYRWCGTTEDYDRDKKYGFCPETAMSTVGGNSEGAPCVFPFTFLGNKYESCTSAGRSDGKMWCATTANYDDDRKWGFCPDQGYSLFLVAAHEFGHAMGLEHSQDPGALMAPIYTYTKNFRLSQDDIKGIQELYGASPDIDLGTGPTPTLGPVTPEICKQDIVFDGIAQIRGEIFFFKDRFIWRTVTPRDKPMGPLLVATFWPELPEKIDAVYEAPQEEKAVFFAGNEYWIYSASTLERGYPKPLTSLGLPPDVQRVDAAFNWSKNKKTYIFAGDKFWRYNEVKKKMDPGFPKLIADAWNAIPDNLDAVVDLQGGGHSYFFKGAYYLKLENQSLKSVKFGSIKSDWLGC
Method: (§1) Examination 2: MMP-2 (gelatinase A) and MMP-9 (gelatinase B) inhibitory activities.
(§2) Pro MMP-2 was obtained from culture medium separated from human pro-MMP-2 cDNA tranfected COS-1 cells. Pro MMP-2 activated by 1 mM (4-aminophenyl) mercury acetic acid and MMP-9, derived human fibrosarcome (Yagai Co. Ltd.), were used as enzyme respectively. Inhibition of both enzyme activities were estimated by enzyme assay using MOCAc-Pro-Leu-Gly-Leu-A2pr(Dnp)-Ala-Arg-NH2 (Peptide Research Center, 3163-v) as substrate. Thus, MMP-2 or MMP-9 (0.01 U/ml), test compound (several concentrations), and the substrate (10 μM) were incubated in 50 mM Tris - HCl buffer (pH 7.4) containing 0.2M NaCl, 10 mM CaCl2, 0.02% NaN3, and 0.05% Brij 35 at 42° C. for 2 h (MMP-2), 3 h (MMP-9) respectively. Inhibition of degradation of substrate in the presence of compound was determined by comparison with the degradation of substrate in the absence of compound, and concentration of 50% inhibition (IC50 value) was calculated.

MMP-9 (gelatinase B) = molecular target: T3, MMP-9 (gelatinase B) (Homo sapiens, UniProt P14780); test: MMP-9 (gelatinase B) inhibitory activities, fluorogenic substrate enzyme assay; conditions: for IC50: 42° C., 3 h, substrate 10 μM
T3 construct: MMP-9, derived human fibrosarcome (Yagai Co. Ltd.), were used as enzyme respectively; purchased Yagai Co. Ltd; host or cells: human fibrosarcoma
Method: as §1, §2

Δ MT1-MMP (Δ MMP-14) = molecular target: T4, Δ MT1-MMP (Δ MMP-14) (Homo sapiens, UniProt P50281); test: Δ MT1-MMP (Δ MMP-14) inhibitory activities, fluorogenic substrate enzyme assay; conditions: 37° C., 30 min, substrate 10 μM; read-out: ΔMMP-14 IC50
T4 construct: ProMT1-MMP cDNA encoded extracellular domain of pro Δ MT1-MMP was tranfected E. coli BL21DE3; made in house; host or cells: E. coli BL21DE3 (inclusion bodies, 8M urea, ion exchange)
Source text: Examination 3: Δ MT1-MMP (Δ MMP-14) inhibitory activities.
ProMT1-MMP cDNA encoded extracellular domain of pro Δ MT1-MMP was tranfected E. coli BL21DE3, pro Δ MT1-MMP collected as inclusion body was solved using 8M urea, and it was pulified by ion exchenge column chlomatography. Inhibition of enzyme activities were estimated by enzyme assay using activated Δ MT1-MMP, obtained from activation of pro Δ MT1-MMP by 10 μ/ml tripsine, and MOCAc-Pro-Leu-Gly-Leu-A2pr(Dnp)-Ala-Arg-NH2 (Peptide Research Center, 3163-v) as substrate. Thus, Δ MT1-MMP, test compound (several concentrations), and the substrate (10 μM) were incubated in 50 mM Tris - HCl buffer (pH 7.4) containing 0.2M NaCl, 10 mM CaCl2, 0.02% NaN3, 0.05% Brij 35, and 10 μM leuipeputine at 37° C. for 30 min. The reaction was stopped by adding of 4 volumes of sodium acetate buffer (pH 4.0), and the degradation of substrate was calculated by measurement with a fluorescence intensity (λ ex 328 nm, λ em 393 nm). Inhibition of degradation of substrate in the presence of compound was determined by comparison with the degradation of substrate in the absence of compound, and concentration of 50% inhibition (IC50 value) was calculated.

T3 sequence (P14780 94-707): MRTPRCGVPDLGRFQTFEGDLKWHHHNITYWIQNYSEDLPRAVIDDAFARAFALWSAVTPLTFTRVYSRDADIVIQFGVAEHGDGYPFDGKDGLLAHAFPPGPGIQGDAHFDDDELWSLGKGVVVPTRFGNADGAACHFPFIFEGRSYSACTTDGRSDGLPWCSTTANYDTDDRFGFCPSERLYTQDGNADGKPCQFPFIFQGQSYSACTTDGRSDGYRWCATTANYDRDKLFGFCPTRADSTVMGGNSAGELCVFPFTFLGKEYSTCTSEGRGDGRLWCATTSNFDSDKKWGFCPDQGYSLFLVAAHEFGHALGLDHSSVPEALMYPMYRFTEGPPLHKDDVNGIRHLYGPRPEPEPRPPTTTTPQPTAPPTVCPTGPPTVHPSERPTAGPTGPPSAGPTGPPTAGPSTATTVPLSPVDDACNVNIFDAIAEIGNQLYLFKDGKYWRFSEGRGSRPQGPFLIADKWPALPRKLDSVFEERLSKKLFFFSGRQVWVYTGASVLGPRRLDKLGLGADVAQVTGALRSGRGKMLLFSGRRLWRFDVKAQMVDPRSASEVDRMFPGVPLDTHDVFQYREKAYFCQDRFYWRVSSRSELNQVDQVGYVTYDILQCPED

COc1ccc(-c2ccc(S(=O)(=O)N3CC[C@@H](NC(=O)c4ccc([N+](=O)[O-])cc4)C[C@@H]3C(=O)NO)cc2)cc1 [Compound 75, (2R, 4R)-2-Hydroxyaminocarbonyl-1-[4-(4-methoxyphenyl)benzenesulfonyl]-4-(4-nitrobenzoylamino)-piperidine]
IC50 [1]: 2500 nM | IC50 (MMP-2 (gelatinase A)): 15 nM | IC50 (MMP-9 (gelatinase B)): 16 nM | IC50 (Δ MT1-MMP (Δ MMP-14)): 890 nM

COc1ccc(C(=O)N[C@@H]2CCN(S(=O)(=O)c3ccc(OC)cc3)[C@@H](C(=O)NO)C2)cc1 [Compound 47, (2R, 4R)-2-Hydroxyaminocarbonyl-1-(4-methoxybenzenesulfonyl)-4-(4-methoxybenzoylamino)-piperidine]
IC50 [1]: 5500 nM | IC50 (MMP-2 (gelatinase A)): 1.7 nM | IC50 (MMP-9 (gelatinase B)): 1.3 nM | IC50 (Δ MT1-MMP (Δ MMP-14)): 3.2 nM

CC(=O)N[C@@H]1CCN(S(=O)(=O)c2ccc(-c3ccc(Cl)cc3)cc2)[C@@H](C(=O)NO)C1 [Compound 72, (2R, 4R)-4-Acetylamino-1-[4-(4-chlorohenyl)benzenesulfonyl]-2-hydroxyaminocarbonyl-piperidine]
IC50 [1]: 37 nM | IC50 (MMP-2 (gelatinase A)): 3 nM | IC50 (MMP-9 (gelatinase B)): 1.1 nM | IC50 (Δ MT1-MMP (Δ MMP-14)): 23 nM

COc1ccc(-c2ccc(S(=O)(=O)N3CC[C@@H](NCCCC(C)C)C[C@@H]3C(=O)NO)cc2)cc1 [Compound 61, (2R, 4R)-2-Hydroxyaminocarbonyl-1-[4-(4-methoxyphenyl)benzenesulfonyl]-4-(4-methylpentylamino)-piperidine]
inhibition at 10 µM [1]: 44.6% | IC50 (MMP-2 (gelatinase A)): 2.7 nM | IC50 (MMP-9 (gelatinase B)): 19 nM | IC50 (Δ MT1-MMP (Δ MMP-14)): 49 nM

COc1ccc(OCCCCC(=O)N[C@H]2CCN(S(=O)(=O)c3ccc(OC)cc3)[C@H](C(=O)NO)C2)cc1 [Compound 78, (2S, 4S)-2-Hydroxyaminocarbonyl-1-(4-methoxybenzenesulfonyl)-4-[5-(4-methoxyphenoxy)pentanoylamino]-piperidine]
inhibition at 10 µM [1]: 31.1% | IC50 (MMP-2 (gelatinase A)): 500 nM | IC50 (MMP-9 (gelatinase B)): 450 nM | IC50 (Δ MT1-MMP (Δ MMP-14)): 300 nM

CC(C)CCC(=O)N[C@@H]1CCN(S(=O)(=O)c2ccccc2-c2ccc(O)cc2)[C@@H](C(=O)NO)C1 [Compound 55, (2R, 4R)-2-Hydroxyaminocarbonyl-1-[2-(4-hydroxyphenyl)benzenesulfonyl]-4-(4-methylpentanoylamino)-piperidine]
inhibition at 10 µM [1]: 29.5% | IC50 (MMP-2 (gelatinase A)): 2400 nM | inhibition at 10 µM (MMP-9 (gelatinase B); at 10^−5M, read-out: MMP-9 inhibition percent): 34.8% | IC50 (Δ MT1-MMP (Δ MMP-14)): 3000 nM

O=C(N[C@@H]1CCN(S(=O)(=O)c2ccc(-c3ccc(O)cc3)cc2)[C@@H](C(=O)NO)C1)c1ccccc1 [Compound 60, (2R, 4R)-4-Benzoylamino-2-hydroxyaminocarbonyl-1-[4-(4-hydroxyphenyl)benzenesulfonyl]-piperidine]
IC50 [1]: 4900 nM | IC50 (MMP-2 (gelatinase A)): 2.9 nM | IC50 (MMP-9 (gelatinase B)): 890 nM | IC50 (Δ MT1-MMP (Δ MMP-14)): 130 nM

COc1ccc(S(=O)(=O)N2CC[C@@H](NC(C)=O)C[C@@H]2C(=O)NO)cc1 [Compound 66, (2R, 4R)-4-Acetylamino-2-hydroxyaminocarbonyl-1-(4-methoxybenzenesulfonyl)-piperidine]
IC50 [1]: 530 nM | IC50 (MMP-2 (gelatinase A)): 4.2 nM | IC50 (MMP-9 (gelatinase B)): 8.6 nM | IC50 (Δ MT1-MMP (Δ MMP-14)): 2.1 nM

COc1ccc(-c2ccc(S(=O)(=O)N3CC[C@@H](NC(=O)c4ccccc4)C[C@@H]3C(=O)NO)cc2)cc1 [Compound 59, (2R, 4R)-4-Benzoylamino-2-hydroxyaminocarbonyl-1-[4-(4-methoxyphenyl)benzenesulfonyl]-piperidine]
inhibition at 10 µM [1]: 57.6% | IC50 (MMP-2 (gelatinase A)): 180 nM | IC50 (MMP-9 (gelatinase B)): 11 nM | IC50 (Δ MT1-MMP (Δ MMP-14)): 95 nM

COc1ccc(S(=O)(=O)N2CC[C@@H](NC(=O)CCC(C)C)C[C@@H]2C(=O)NO)cc1 [Compound 45, (2R, 4R)-2-Hydroxyaminocarbonyl-1-(4-methoxybenzenesulfonyl)-4-(4-methylpentanoylamino)-piperidine]
inhibition at 10 µM [1]: 45.3% | IC50 (MMP-2 (gelatinase A)): 1.7 nM | IC50 (MMP-9 (gelatinase B)): 1.4 nM | IC50 (Δ MT1-MMP (Δ MMP-14)): 16 nM

CC(C)CCC(=O)N[C@@H]1CCN(S(=O)(=O)c2ccc(O)cc2)[C@@H](C(=O)NO)C1 [Compound 63]
IC50 [1]: 510 nM | IC50 (MMP-2 (gelatinase A)): 28 nM | IC50 (MMP-9 (gelatinase B)): 31 nM | IC50 (Δ MT1-MMP (Δ MMP-14)): 17 nM

COc1ccc(-c2ccccc2S(=O)(=O)N2CC[C@@H](NC(=O)CCC(C)C)C[C@@H]2C(=O)NO)cc1 [Compound 54, (2R, 4R)-2-Hydroxyaminocarbonyl-1-[2-(4-methoxyphenyl)benzenesulfonyl]-4-(4-methylpentanoylamino)-piperidine]
inhibition at 10 µM [1]: 45.8% | IC50 (MMP-2 (gelatinase A)): 380 nM | IC50 (MMP-9 (gelatinase B)): 1800 nM | IC50 (Δ MT1-MMP (Δ MMP-14)): 200 nM

COc1ccc(-c2ccc(S(=O)(=O)N3CC[C@@H](NCc4ccccc4)C[C@@H]3C(=O)NO)cc2)cc1 [Compound 56, (2R, 4R)-4-Benzylamino-2-hydroxyaminocarbonyl-1-[4-(4-methoxyphenyl)benzenesulfonyl]-piperidine]
IC50 [1]: 1300 nM | IC50 (MMP-2 (gelatinase A)): 0.49 nM | IC50 (MMP-9 (gelatinase B)): 0.36 nM | IC50 (Δ MT1-MMP (Δ MMP-14)): 16 nM

COc1ccc(-c2ccc(S(=O)(=O)N3CC[C@@H](NC(C)=O)C[C@@H]3C(=O)NO)cc2)cc1 [Compound 64, (2R, 4R)-4-Acetylamino-2-hydroxyaminocarbonyl-1-[4-(4-methoxyphenyl)benzenesulfonyl]-piperidine]
IC50 [1]: 650 nM | IC50 (MMP-2 (gelatinase A)): 0.91 nM | IC50 (MMP-9 (gelatinase B)): 0.72 nM | IC50 (Δ MT1-MMP (Δ MMP-14)): 8.9 nM
